Molecules are shown by their SMILES. ± gives the expanded uncertainty stated by the source.

The term mass density denotes the mass of a sample divided by its volume.

The conditions of one data set: 293.15 K; 101.33 kPa; Liquid; Pycnometric method.
Consider `CN(C)C=O` [dimethylformamide], for which the mass density worked out at 948.7 ± 5.9 kg/m3.
On the same count and under the same terms, next, `Clc1ccccc1` [chlorobenzene]: 1106 ± 6.3 kg/m3.

Still in this data set, the particulars now being: 298.15 K; 101.33 kPa; Liquid; Pycnometric method.
`CCCCCCO` [hexan-1-ol]: the mass density is on record as 815.3 ± 1.2 kg/m3.
In the case of `Cc1ccccc1C` [1,2-dimethylbenzene], the mass density was found to be 875.9 ± 5.8 kg/m3.
As for `O=[N+]([O-])c1ccccc1` [nitrobenzene], the mass density came out at 1198 ± 6.5 kg/m3.
Still for that read-out and setting: next, `Nc1ccccc1` [aniline]: 1017.3 ± 6.1 kg/m3.
The same measure, in the same setting: next, `CC#N` [acetonitrile]: 776.5 ± 1.2 kg/m3; `C=CC#N` [acrylonitrile]: 800.3 ± 5.7 kg/m3.
